Experiments:
Oilseed Rape [1] = test: Test C preemergence: oilseed rape; type: in vivo, Brassica napus; conditions: 125 g ai/ha, scale 0 to 100, 0 no effect, 100 complete control
Barnyardgrass = test: Test C postemergence: barnyardgrass; type: in vivo, Echinochloa crus-galli
Summary of the method: (§1)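 Plants at the 1- to 4-leaf stage (2 to 18 cm tall), grown in pots of peat moss/vermiculite planting medium, received postemergence applications of the formulated test chemicals. After 13 to 15 days in a greenhouse, injury was scored visually versus controls from 0 (no effect) to 100 (complete control).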

Oilseed Rape [2] = test: Test C pre-/postemergence: oilseed rape; type: in vivo; conditions: Preemergence, 250 g ai/ha; scale 0 to 100, 0 no effect, 100 complete control
Waterhemp [3] = test: Test C pre-/postemergence: waterhemp; type: in vivo; conditions: Preemergence, 250 g ai/ha; scale 0 to 100, 0 no effect, 100 complete control
Oilseed Rape [4] = test: Test C postemergence: oilseed rape; type: in vivo, Brassica napus; conditions: 125 g ai/ha, scale 0 to 100, 0 no effect, 100 complete control
Oilseed Rape [5] = test: Test C preemergence: oilseed rape; type: in vivo; conditions: scale of 0 to 100, 0 is no effect, 100 is complete control
[6] = test system: barnyardgrass (Echinochloa crus-galli); test: Test C pre-/postemergence: barnyardgrass; type: in vivo; conditions: Preemergence, 250 g ai/ha; scale 0 to 100, 0 no effect, 100 complete control
Waterhemp [7] = test: Test C postemergence: waterhemp; type: in vivo, Amaranthus rudis; conditions: 125 g ai/ha, scale 0 to 100, 0 no effect, 100 complete control
Waterhemp [8] = test: Test C postemergence: waterhemp; type: in vivo
Summary of the method: as §1

Oilseed Rape [9] = test: Test C postemergence: oilseed rape; type: in vivo
Summary of the method: as §1

[10] = 31 g ai/ha, scale 0 to 100 (0 no effect, 100 complete control)
[11] = 62 g ai/ha, scale 0 to 100 (0 no effect, 100 complete control)

Cc1nn(-c2ccc(F)c(C(F)(F)F)c2)nc1Cc1ccnc(C(F)(F)F)c1 [Compound 156]
Plant response rating, Oilseed Rape (Oilseed Rape [1]): 90
Plant response rating, Barnyardgrass (Barnyardgrass; [10]): 20
Plant response rating, Barnyardgrass (Barnyardgrass; [11]): 30
Plant response rating, Barnyardgrass (Barnyardgrass; 250 g ai/ha, scale 0 to 100): 55
Plant response rating, Oilseed Rape (Oilseed Rape [2]): 98
Plant response rating, Waterhemp (Waterhemp [3]): 100
Plant response rating, Oilseed Rape (Oilseed Rape [4]): 95
Plant response rating, Oilseed Rape (Oilseed Rape [5]; 31 g ai/ha): 10
Plant response rating, Oilseed Rape (Oilseed Rape [5]; 62 g ai/ha): 60
Plant response rating, Barnyardgrass [6]: 100
Plant response rating, Waterhemp (Waterhemp [7]): 98
Plant response rating, Waterhemp (Waterhemp [8]; [10]): 98
Plant response rating, Waterhemp (Waterhemp [8]; [11]): 98
Plant response rating, Waterhemp (Waterhemp [8]; 250 g ai/ha, scale 0 to 100): 98
Plant response rating, Oilseed Rape (Oilseed Rape [9]; [10]): 80
Plant response rating, Oilseed Rape (Oilseed Rape [9]; [11]): 90
Plant response rating, Oilseed Rape (Oilseed Rape [9]; 250 g ai/ha, scale 0 to 100): 95

From patent publication US9302999B2, “Substituted triazoles as herbicides” (E. I. DU PONT DE NEMOURS AND COMPANY, priority 2012, dated 2016)
